Reference: ChEMBL document CHEMBL3046407, “Toxicity of monoterpenes against larvae and adults of Colorado potato beetle, Leptinotarsa decemlineata Say (Coleoptera: Chrysomelidae)” (2007)

How the values were obtained:
[1] = tested on: Leptinotarsa decemlineata; assay: Insecticidal activity against third-instar larval stage of Leptinotarsa decemlineata infested potato leaves assessed as mortality at 10 mg after 12 hr relative to control; assay type: functional
[2] = tested on: Leptinotarsa decemlineata; assay type: functional, Instar larval stage
[3] = tested on: Leptinotarsa decemlineata; assay type: functional, Instar larval stage; remark: listed apart in the source
[4] = tested on: Leptinotarsa decemlineata; assay type: functional, Instar larval stage; remark: listed apart in the source
[5] = tested on: Leptinotarsa decemlineata; assay: Insecticidal activity against second-instar larval stage of Leptinotarsa decemlineata infested potato leaves assessed as mortality at 20 mg after 12 hr relative to control; assay type: functional
[6] = tested on: Leptinotarsa decemlineata; assay type: functional, Instar larval stage; remark: listed apart in the source
[7] = tested on: Leptinotarsa decemlineata; assay type: functional, Instar larval stage; remark: listed apart in the source
[8] = tested on: Leptinotarsa decemlineata; assay type: functional, Instar larval stage; remark: listed apart in the source
[9] = tested on: Leptinotarsa decemlineata; assay: Insecticidal activity against second-instar larval stage of Leptinotarsa decemlineata infested potato leaves assessed as mortality at 10 mg after 12 hr relative to control; assay type: functional
[10] = tested on: Leptinotarsa decemlineata; assay: Insecticidal activity against adult Leptinotarsa decemlineata infested potato leaves assessed as mortality at 20 mg after 96 hr relative to control; assay type: functional
[11] = tested on: Leptinotarsa decemlineata; assay: Insecticidal activity against first-instar larval stage of Leptinotarsa decemlineata infested potato leaves assessed as mortality at 10 mg after 48 hr relative to control; assay type: functional
[12] = tested on: Leptinotarsa decemlineata; assay: Insecticidal activity against first-instar larval stage of Leptinotarsa decemlineata infested potato leaves assessed as mortality at 20 mg after 96 hr relative to control; assay type: functional
[13] = tested on: Leptinotarsa decemlineata; assay: Insecticidal activity against first-instar larval stage of Leptinotarsa decemlineata infested potato leaves assessed as mortality at 20 mg after 48 hr relative to control; assay type: functional
[14] = tested on: Leptinotarsa decemlineata; assay: Insecticidal activity against first-instar larval stage of Leptinotarsa decemlineata infested potato leaves assessed as mortality at 20 mg after 24 hr relative to control; assay type: functional
[15] = tested on: Leptinotarsa decemlineata; assay: Insecticidal activity against first-instar larval stage of Leptinotarsa decemlineata infested potato leaves assessed as mortality at 20 mg after 12 hr relative to control; assay type: functional
[16] = tested on: Leptinotarsa decemlineata; assay: Insecticidal activity against first-instar larval stage of Leptinotarsa decemlineata infested potato leaves assessed as mortality at 10 mg after 96 hr relative to control; assay type: functional
[17] = tested on: Leptinotarsa decemlineata; assay: Insecticidal activity against first-instar larval stage of Leptinotarsa decemlineata infested potato leaves assessed as mortality at 10 mg after 24 hr relative to control; assay type: functional
[18] = tested on: Leptinotarsa decemlineata; assay: Insecticidal activity against adult Leptinotarsa decemlineata infested potato leaves assessed as mortality at 20 mg after 48 hr relative to control; assay type: functional
[19] = tested on: Leptinotarsa decemlineata; assay: Insecticidal activity against adult Leptinotarsa decemlineata infested potato leaves assessed as mortality at 20 mg after 24 hr relative to control; assay type: functional
[20] = tested on: Leptinotarsa decemlineata; assay: Insecticidal activity against adult Leptinotarsa decemlineata infested potato leaves assessed as mortality at 20 mg after 12 hr relative to control; assay type: functional
[21] = tested on: Leptinotarsa decemlineata; assay: Insecticidal activity against adult Leptinotarsa decemlineata infested potato leaves assessed as mortality at 10 mg after 96 hr relative to control; assay type: functional
[22] = tested on: Leptinotarsa decemlineata; assay: Insecticidal activity against adult Leptinotarsa decemlineata infested potato leaves assessed as mortality at 10 mg after 48 hr relative to control; assay type: functional
[23] = tested on: Leptinotarsa decemlineata; assay: Insecticidal activity against adult Leptinotarsa decemlineata infested potato leaves assessed as mortality at 10 mg after 24 hr relative to control; assay type: functional
[24] = tested on: Leptinotarsa decemlineata; assay: Insecticidal activity against adult Leptinotarsa decemlineata infested potato leaves assessed as mortality at 10 mg after 12 hr relative to control; assay type: functional
[25] = tested on: Leptinotarsa decemlineata; assay: Insecticidal activity against first-instar larval stage of Leptinotarsa decemlineata infested potato leaves assessed as mortality at 10 mg after 12 hr relative to control; assay type: functional
[26] = tested on: Leptinotarsa decemlineata; assay type: functional, Instar larval stage; remark: listed apart in the source
[27] = tested on: Leptinotarsa decemlineata; assay type: functional, Instar larval stage; remark: listed apart in the source
[28] = tested on: Leptinotarsa decemlineata; assay: Insecticidal activity against third-instar larval stage of Leptinotarsa decemlineata infested potato leaves assessed as mortality at 20 mg after 24 hr relative to control; assay type: functional
[29] = tested on: Leptinotarsa decemlineata; assay: Insecticidal activity against third-instar larval stage of Leptinotarsa decemlineata infested potato leaves assessed as mortality at 20 mg after 12 hr relative to control; assay type: functional
[30] = tested on: Leptinotarsa decemlineata; assay type: functional, Instar larval stage; remark: listed apart in the source
[31] = tested on: Leptinotarsa decemlineata; assay type: functional, Instar larval stage; remark: listed apart in the source
[32] = tested on: Leptinotarsa decemlineata; assay: Insecticidal activity against third-instar larval stage of Leptinotarsa decemlineata infested potato leaves assessed as mortality at 10 mg after 24 hr relative to control; assay type: functional
[33] = tested on: Sitophilus granarius; assay: Insecticidal activity against Sitophilus granarius (granary weevil) assessed as mortality; assay type: functional

Compound | mortality [1] [%] | mortality [2] [%] | mortality [3] [%] | mortality [4] [%] | mortality [5] [%] | mortality [6] [%] | mortality [7] [%] | mortality [8] [%] | mortality [9] [%] | mortality [10] [%] | mortality [11] [%] | mortality [12] [%] | mortality [13] [%] | mortality [14] [%] | mortality [15] [%] | mortality [16] [%] | mortality [17] [%] | mortality [18] [%] | mortality [19] [%] | mortality [20] [%] | also measured
CC1(C)C2CCC1(C)C(O)C2 (stereo not given) [BORNEOL] | 0 | 23.3 | 16.7 | 0 | 0 | 20 | 0 | 0 | 0 | 66.7 | 0 | 16.7 | 6.7 | 0 | 0 | 13.3 | 0 | 66.7 | 20 | 3.3 | mortality [21]: 23.3%; mortality [22]: 13.3%; mortality [23]: 0%; mortality [24]: 0%; mortality [25]: 0%; mortality [26]: 0%; mortality [27]: 0%; mortality [28]: 0%; mortality [29]: 0%; mortality [30]: 0%; mortality [31]: 0%; mortality [32]: 0%
CC1=CC[C@@H](C(C)(C)O)CC1 [ALPHA-TERPINEOL] | 0 | 10 | 6.7 | 3.3 | 0 | 13.3 | 6.7 | 6.7 | 0 | 23.3 | 13.7 | 30 | 26.7 | 23.3 | 16.7 | 16.7 | 6.7 | 0 | 0 | 0 | mortality [21]: 16.7%; mortality [22]: 6.7%; mortality [23]: 0%; mortality [24]: 0%; mortality [25]: 3.3%; mortality [26]: 23.3%; mortality [27]: 20%; mortality [28]: 13.3%; mortality [29]: 13.3%; mortality [30]: 0%; mortality [31]: 0%; mortality [32]: 0%
CC(C)[C@H]1CC[C@@H](C)C[C@@H]1O [ISOMENTHOL] | 0 | 0 | 0 | 0 | 0 | 0 | 0 | 0 | 0 | 26.7 | 6.7 | 0 | 0 | 0 | 0 | 10 | 3.3 | 20 | 6.7 | 6.7 | mortality [21]: 33.3%; mortality [22]: 30%; mortality [23]: 20%; mortality [24]: 0%; mortality [25]: 3.3%; mortality [26]: 6.7%; mortality [27]: 3.3%; mortality [28]: 0%; mortality [29]: 0%; mortality [30]: 0%; mortality [31]: 0%; mortality [32]: 0%
CC12CCC(C1)C(C)(C)C2=O (stereo not given) [FENCHONE] | 56.7 | 100 | 100 | 100 | 33.3 | 73.3 | 63.3 | 50 | 23.3 | 100 | 63.3 | 100 | 100 | 83.3 | 36.7 | 83.3 | 46.7 | 100 | 100 | 90 | mortality [21]: 100%; mortality [22]: 100%; mortality [23]: 100%; mortality [24]: 53.3%; mortality [25]: 13.3%; mortality [26]: 100%; mortality [27]: 100%; mortality [28]: 100%; mortality [29]: 66.7%; mortality [30]: 100%; mortality [31]: 100%; mortality [32]: 93.3%
CC12CCC(CC1=O)C2(C)C (stereo not given) [CAMPHOR] | 0 | 86.7 | 86.7 | 83.3 | 36.7 | 70 | 63.3 | 46.7 | 13.3 | 93.3 | 23.3 | 86.7 | 86.7 | 53.3 | 30 | 76.7 | 0 | 43.3 | 13.3 | 6.7 | mortality [21]: 56.7%; mortality [22]: 36.7%; mortality [23]: 0%; mortality [24]: 0%; mortality [25]: 0%; mortality [26]: 36.7%; mortality [27]: 33.3%; mortality [28]: 30%; mortality [29]: 26.7%; mortality [30]: 6.7%; mortality [31]: 6.7%; mortality [32]: 0%
CC1CCC(C(C)C)C(O)C1 (stereo not given) [MENTHOL] | 20 | 40 | 33.3 | 20 | 0 | 46.7 | 26.7 | 6.7 | 3.3 | 33 | 16.7 | 36.7 | 30 | 16.7 | 0 | 36.7 | 3.3 | 13.3 | 0 | 0 | mortality [21]: 30%; mortality [22]: 16.7%; mortality [23]: 3.3%; mortality [24]: 3.3%; mortality [25]: 0%; mortality [26]: 40%; mortality [27]: 40%; mortality [28]: 33.3%; mortality [29]: 26.7%; mortality [30]: 26.7%; mortality [31]: 23.3%; mortality [32]: 23.3%
CC12CCC(C1)C(C)(C)C2O (stereo not given) [FENCHYL ALCOHOL] | 10 | 3.3 | 3.3 | 3.3 | 3.3 | 13.3 | 13.3 | 10 | 3.3 | 20 | 13.3 | 3.3 | 3.3 | 3.3 | 3.3 | 13.3 | 10 | 6.7 | 0 | 0 | mortality [21]: 43.3%; mortality [22]: 16.7%; mortality [23]: 16.7%; mortality [24]: 3.3%; mortality [25]: 3.3%; mortality [26]: 23.3%; mortality [27]: 20%; mortality [28]: 10%; mortality [29]: 6.7%; mortality [30]: 30%; mortality [31]: 30%; mortality [32]: 23.3%
CC(C)=C1CC[C@@H](C)CC1=O [PULEGONE] |  |  |  |  |  |  |  |  |  |  |  |  |  |  |  |  |  |  |  |  | mortality [33]: 90%
